Results reported in patent US7884077B2, “Methods for the treatment of mood disorders” (The McLean Hospital Corporation, priority 2006, dated 2011).
“Also recorded” adds a separate entry of the source.

Assays:
KOR = KOR (Homo sapiens, UniProt P41145); details: Zhu et al., 1997; cited from earlier work
mu opiate receptors = mu opiate receptors (Homo sapiens, UniProt P35372); details: Bidlack et al., 2000; cited from earlier work
sigma receptors = details: Bidlack et al., 2000; cited from earlier work
[1] = tested on: human subjects who have been diagnosed with bipolar disorder and are acutely manic; test: Open-label cumulative-dosing clinical trial of pentazocine in acutely manic subjects; assay type: in vivo; details: for YMRS mean: morning
Procedure: A trial study was conducted to determine the effect of pentazocine on the mood of human subjects who have been diagnosed with bipolar disorder and are acutely manic. Ten subjects (7 male and 3 female) between the ages of 18 and 65 were enrolled in the study. All subjects were admitted to the hospital with a primary diagnosis of bipolar mania by DSMIV criteria. […] Subjects with a current history of substance abuse or a recent history of opiate dependence were excluded. All subjects were deemed competent to give informed consent by non-study physicians. After complete description of the study to the subjects, written informed consent was obtained.
The current study was undertaken in full compliance with federal requirements and with institutional review board approval. The study was designed as an open-label cumulative-dosing trial.
The three-day study consisted of pre-treatment, treatment, and post-treatment days with subjects rated in the morning on all three days and multiple times on the day of treatment. On the treatment day, an initial 50 mg of pentazocine was given by mouth. A second dose was given two hours following the initial dose. Pentazocine was given as Talwin Nx (Sanofi-Synthlabo), consisting of 50 mg dose pentazocine with 0.5 mg naloxone (naloxone is added to limit the intra-venous abuse potential of this drug but is not absorbed when given by oral administration as used here).
Assessment of manic symptoms by YMRS were made daily at the same time in the morning on all three days of the study. As the YMRS was designed to reflect the past 48 hours, it is not sensitive to acute symptomatic change (IsHak et al, 2002) YMRS and DSMIV criteria were used as the basis for constructing a scale to detect acute changes in manic symptoms (The Mania Acute Change Scale or MACS). […] The MACS scale is available online at www.mcleanhospital.org. The MACS, which includes items from the YMRS and a brief assessment of dysphoria/depression was given along with the YMRS in the morning on all three days of the study. In addition, the MACS was given hourly for 6 hours starting with the first dose of pentazocine. All investigator ratings were performed by investigator Beth Murphy, M. D., Ph.D. A self-rating scale designed to assess manic symptoms and medication side effects was completed by subjects whenever the MACS was given. Staff reports were reviewed, with special note of the duration of sleep and whether any ‘pro re nata’ (PRN) medications were required. Data were analyzed using a repeated measures ANOVA (SPSS 14.0).

[2] = 50 mg by mouth at Hour 0 and Hour 2, hourly ratings
[3] = one hour after first 50 mg oral dose
[4] = second 50 mg oral dose given at hour 2

mu opiate receptors, sequence (P35372 whole entry): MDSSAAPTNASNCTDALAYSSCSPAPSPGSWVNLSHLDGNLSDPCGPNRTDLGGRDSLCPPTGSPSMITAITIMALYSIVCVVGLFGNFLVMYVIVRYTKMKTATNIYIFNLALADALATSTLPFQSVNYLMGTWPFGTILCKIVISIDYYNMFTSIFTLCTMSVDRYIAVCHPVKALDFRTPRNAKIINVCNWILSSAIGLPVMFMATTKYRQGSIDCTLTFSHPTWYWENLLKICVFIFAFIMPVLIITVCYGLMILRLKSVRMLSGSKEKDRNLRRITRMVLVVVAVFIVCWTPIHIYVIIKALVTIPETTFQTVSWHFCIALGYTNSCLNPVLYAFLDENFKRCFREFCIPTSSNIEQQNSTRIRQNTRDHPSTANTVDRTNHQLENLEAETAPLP
KOR, sequence (P41145 whole entry): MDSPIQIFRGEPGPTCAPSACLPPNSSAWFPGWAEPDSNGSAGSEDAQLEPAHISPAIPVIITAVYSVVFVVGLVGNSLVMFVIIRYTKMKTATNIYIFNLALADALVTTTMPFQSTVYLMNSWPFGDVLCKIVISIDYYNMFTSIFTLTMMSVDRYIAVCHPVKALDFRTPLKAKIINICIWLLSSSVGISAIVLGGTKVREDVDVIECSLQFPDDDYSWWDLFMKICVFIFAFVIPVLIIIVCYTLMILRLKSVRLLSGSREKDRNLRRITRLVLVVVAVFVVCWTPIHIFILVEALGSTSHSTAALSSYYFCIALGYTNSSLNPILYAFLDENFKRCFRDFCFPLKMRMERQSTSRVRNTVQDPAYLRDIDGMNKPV

CC(C)=CCN1CCC2(C)c3cc(O)ccc3CC1C2C (centres unmarked) [pentazocine]
efficacy at KOR (KOR): partial agonist | affinity and effects at mu opiate receptors relative to KOR (mu opiate receptors): lower affinity and weaker effects | affinity and effects at sigma receptors relative to KOR (sigma receptors): lower affinity and weaker effects | dysphoria ([1]; 50 mg by mouth at Hour 0 and Hour 2): No dysphoria was reported; also recorded: None of the subjects complained of dysphoria | effect on manic symptoms (total MACS score) [1, 2]: manic symptoms decreased; also recorded: All subjects experienced an improvement in manic symptoms; also recorded: transient but substantial and statistically significant reduction in manic symptoms | effect on psychotic symptoms (clinician rating) [1, 2]: no significant changes in psychosis; also recorded: No subject experienced exacerbation of psychotic symptoms; also recorded: most subjects experienced a mild improvement in psychotic symptoms | sedation (clinician rating, scale of 0-4) [1, 2]: mild (half-point), nonsignificant, increases in sedation; also recorded: Sedation was low | mean total MACS score ([1]; Hour 0 (baseline), before first dose): 20.1 | mean total MACS score ([1]; hour 2, when second dose was given): 18.6 | mean total MACS score ([1]; hour 3, one hour after second 50 mg oral dose): 11.0 | mean change in total manic symptom ratings (MACS) from baseline [1, 3]: −8.8 | mean total MACS score [1, 3]: 11.3 | mean change in total manic symptom ratings from baseline (decrease) ([1]; one hour after first 50 mg oral dose, MACS, 10 subjects): 44% | rebound in symptoms after treatment ([1]; post-treatment day): no evidence of a rebound in symptoms after treatment | YMRS mean ([1]; post-treatment day): 12.7 ± 8.4 | YMRS mean ([1]; pretreatment day): 23.6 ± 8.9 | fall in mean MACS score between hour 2 and hour 3 [1, 4]: 7.6 points | fall in mean total manic symptom ratings (MACS) between hour 2 and hour 3 [1, 4]: 41% | YMRS mean ([1]; treatment day): 22.0 ± 6.9 | tolerability / side effects ([1]; two 50 mg oral doses two hours apart): well-tolerated; also recorded: No subject experienced significant side effects; also recorded: No adverse effects, including psychotomimetic effects, were observed or reported
